Laboratory results taken from patent US20130059783A1, “COMPOSITIONS AND METHODS FOR EXPANDING BFU-E CELLS” (priority 2010, published 2013).

Tests used:
Type in all cases: cell-based, mouse
BFU-E cells [1] = assay: CFU-E and BFU-E colony forming assays of BFU-E cells cultured in SFELE medium; settings: for Total colony numbers from 1,000 "BFU-E" cells: CFU-E 1 cluster / Total colony numbers from 1,000 "BFU-E" cells: large BFU-E >20 clusters / Total colony numbers from 1,000 "BFU-E" cells: small BFU-E 5-20 clusters: CD24 and CD71 10% low BFU-E cells, SFELE, 100 nM Dex and/or 333 μM DMOG; for Total colony numbers from 1000 BFU-E cells: Large BFU-E / Total colony numbers from 1000 BFU-E cells: Single CFU-E / Total colony numbers from 1000 BFU-E cells: Small BFU-E: CD71 10% low BFU-E cells, SFELE with 100 nM Dex
Experimental: Dexamethasone prevents BFU-E cell exhaustion, which allows more CFU-E cells to be formed. […] (A) The total number of cells formed from 1000 BFU-E cells at different time points. […] Standard deviation between four separate biological experiments is shown in parenthesis (n/d=not determined).
At daily intervals colony assays were performed (Table 2). As in the experiment in FIG. 3, for the first three days the total number of cells increased at the same rate in all cultures.
(§1) Colonies were scored after 3 days. […] The number of hemoglobinized early BFU-E and late BFU-E colonies was determined after 8-9 days following staining with 2,7-Diaminofluorene (Sigma Chemical, St. Louis, Mo.).

CFU-E cells = assay: Colony forming assays of sorted CFU-E fractions (Table S2)
Description: Separation of BFU-E and CFU-E cells by expression of CD71, CD24a or both CD71 and CD24a. C-kit positive BFU-E and CFU-E cells were sorted from FLEP cells based on expression of CD71, CD24a or both CD71 and CD24a. In all experiments the BFU-E fraction was the subset of c-kit^positive FLEP cells with the 10% lowest expression of CD71 and/or CD24a, while the CFU-E fraction was the subset with 20% highest expression of CD71 and/or CD24a. Sorted BFU-E and CFU-E populations were subjected to colony forming assays under two different conditions.
The potential of the sorted cells to form large BFU-E, small BFU-E, CFU-G/M/Mk, and CFU-GEMM colonies (±standard deviation) was determined by a second assay in methyl cellulose containing 10U Epo, 20 nM IL-3, 20 nM IL-6 and 50 nM SCF per mL, and was scored at day 8-9. […] To determine the effect of DMOG, colony assays of sorted BFU-E (CD71 and CD24a^10% low) cells were also performed in the presence of 333 μM DMOG.
as §1

BFU-E cells [2] = assay: Colony forming assays of sorted BFU-E fractions (Table S2)
Description: Separation of BFU-E and CFU-E cells by expression of CD71, CD24a or both CD71 and CD24a. C-kit positive BFU-E and CFU-E cells were sorted from FLEP cells based on expression of CD71, CD24a or both CD71 and CD24a. In all experiments the BFU-E fraction was the subset of c-kit^positive FLEP cells with the 10% lowest expression of CD71 and/or CD24a, while the CFU-E fraction was the subset with 20% highest expression of CD71 and/or CD24a. Sorted BFU-E and CFU-E populations were subjected to colony forming assays under two different conditions. […] The number of CFU-E colonies (±standard deviation) is shown. The sorted “BFU-E” populations mostly formed small CFU-E clusters rather than single CFU-E colonies in these assays. These CFU-E clusters are formed by precursors to CFU-Es and were scored separately as multi-CFU-Es. The number of “multi-CFU-Es” is not shown since these cells likely represent the same cells as those forming small BFU-E colonies.
The potential of the sorted cells to form large BFU-E, small BFU-E, CFU-G/M/Mk, and CFU-GEMM colonies (±standard deviation) was determined by a second assay in methyl cellulose containing 10U Epo, 20 nM IL-3, 20 nM IL-6 and 50 nM SCF per mL, and was scored at day 8-9. […] To determine the effect of DMOG, colony assays of sorted BFU-E (CD71 and CD24a^10% low) cells were also performed in the presence of 333 μM DMOG. In agreement with the finding that DMOG enhances BFU-E self-renewal BFU-E colonies were larger with a more immature appearance in the presence of DMOG and Dex. Therefore, in the presence of DMOG and Dex most BFU-E colonies were scored as “large BFU-Es.”
No GEMM colonies were formed (Table S2).
as §1

[3] = CD71 10% low cells, SFELE with Dex, Day 3
[4] = Day 3 of culture, 100 nM Dex or 333 μM DMOG alone
[5] = CD24a 20% high cells, 100 nM Dex
[6] = CD71 20% high cells, 100 nM Dex
[7] = CD71 and CD24a 20% high cells (n = 1), line marked +
[8] = sorted CD71 20% high cells, with Dex
[9] = CD24a 10% low cells, 100 nM Dex
[10] = CD71/CD24a 10% low cells, 100 nM Dex and/or 333 μM DMOG
[11] = purified CD71 10% low cells, with Dex

Structure (SMILES): C[C@@H]1C[C@H]2[C@@H]3CCC4=CC(=O)C=C[C@]4(C)[C@@]3(F)[C@@H](O)C[C@]2(C)[C@@]1(O)C(=O)CO [Dex, dexamethasone]
- Total colony numbers from 1,000 "BFU-E" cells: CFU-E 1 cluster (BFU-E cells [1]; day 0 (before culture)): 30 (±11)
- Total colony numbers from 1,000 "BFU-E" cells: large BFU-E >20 clusters (BFU-E cells [1]; day 0 (before culture)): 423 (±31)
- Total colony numbers from 1,000 "BFU-E" cells: small BFU-E 5-20 clusters (BFU-E cells [1]; day 0 (before culture)): 262 (±64)
- Total colony numbers from 1,000 "BFU-E" cells: CFU-E 1 cluster (BFU-E cells [1]; day 1): 424 (±271)
- Total colony numbers from 1,000 "BFU-E" cells: large BFU-E >20 clusters (BFU-E cells [1]; day 1): 463 (±61)
- Total colony numbers from 1,000 "BFU-E" cells: small BFU-E 5-20 clusters (BFU-E cells [1]; day 1): 1,766 (±695)
- Total colony numbers from 1,000 "BFU-E" cells: CFU-E 1 cluster (BFU-E cells [1]; day 2): 11,468 (±1,088)
- Total colony numbers from 1,000 "BFU-E" cells: large BFU-E >20 clusters (BFU-E cells [1]; day 2): 482 (±110)
- Total colony numbers from 1,000 "BFU-E" cells: small BFU-E 5-20 clusters (BFU-E cells [1]; day 2): 5,771 (±1,625)
- Total colony numbers from 1,000 "BFU-E" cells: CFU-E 1 cluster (BFU-E cells [1]; day 3): 60,699 (±22,369)
- Total colony numbers from 1,000 "BFU-E" cells: large BFU-E >20 clusters (BFU-E cells [1]; day 3): 400 (±108)
- Total colony numbers from 1,000 "BFU-E" cells: small BFU-E 5-20 clusters (BFU-E cells [1]; day 3): 8,334 (±2,489)
- Total colony numbers from 1,000 "BFU-E" cells: CFU-E 1 cluster (BFU-E cells [1]; day 4): 138,600 (±24,546)
- Total colony numbers from 1,000 "BFU-E" cells: CFU-E 1 cluster (BFU-E cells [1]; day 5): 261,550 (±98,160)
- Total colony numbers from 1,000 "BFU-E" cells: large BFU-E >20 clusters (BFU-E cells [1]; day 5): 0
- Total colony numbers from 1,000 "BFU-E" cells: small BFU-E 5-20 clusters (BFU-E cells [1]; day 5): 10,271 (±3,344)
- Total colony numbers from 1,000 "BFU-E" cells: CFU-E 1 cluster (BFU-E cells [1]; day 6): 249,160 (±55,172)
- Total colony numbers from 1,000 "BFU-E" cells: CFU-E 1 cluster (BFU-E cells [1]; day 7 (performed twice)): 176,000 (±15,556)
- Total colony numbers from 1,000 "BFU-E" cells: CFU-E 1 cluster (BFU-E cells [1]; day 8 (performed twice)): 66,000 (±56,003)
- Total colony numbers from 1000 BFU-E cells: Large BFU-E (BFU-E cells [1]; 0 h (before culture)): 241 (±79)
- Total colony numbers from 1000 BFU-E cells: Single CFU-E (BFU-E cells [1]; 0 h (before culture)): 73 (±26)
- Total colony numbers from 1000 BFU-E cells: Small BFU-E (BFU-E cells [1]; 0 h (before culture)): 277 (±89)
- Total colony numbers from 1000 BFU-E cells: Large BFU-E (BFU-E cells [1]; 24 h): 181 (±132)
- Total colony numbers from 1000 BFU-E cells: Single CFU-E (BFU-E cells [1]; 24 h): 1,164 (±593)
- Total colony numbers from 1000 BFU-E cells: Small BFU-E (BFU-E cells [1]; 24 h): 1,568 (±604)
- Total colony numbers from 1000 BFU-E cells: Large BFU-E (BFU-E cells [1]; 48 h): 130 (±53)
- Total colony numbers from 1000 BFU-E cells: Single CFU-E (BFU-E cells [1]; 48 h): 25,342 (±5,714)
- Total colony numbers from 1000 BFU-E cells: Small BFU-E (BFU-E cells [1]; 48 h): 6,730 (±515)
- Total colony numbers from 1000 BFU-E cells: Large BFU-E (BFU-E cells [1]; 72 h): 150 (±58)
- Total colony numbers from 1000 BFU-E cells: Single CFU-E (BFU-E cells [1]; 72 h): 122,413 (±14,086)
- Total colony numbers from 1000 BFU-E cells: Small BFU-E (BFU-E cells [1]; 72 h): 15,350 (±3,838)
- Total colony numbers from 1000 BFU-E cells: Single CFU-E (BFU-E cells [1]; 120 h): 904,050 (±434,778)
- Late BFU-Es per initial sorted BFU-E cell (BFU-E cells [1]; CD71 10% low cells, SFELE with Dex, Day 2): 67
- CFU-Es formed per BFU-E (BFU-E cells [1]; [3]): 122
- Late BFU-Es per initial sorted BFU-E cell (BFU-E cells [1]; [3]): 153
- BFU-Es per plated BFU-E (BFU-E cells [1]; [4]): 8.7
- CFU-Es per plated BFU-E (BFU-E cells [1]; [4]): 51
- Increase of number of CFU-E cells between Days 3 and 5 (BFU-E cells [1]; cultures with Dex): 7.3 fold
- CFU-G/M/Meg colonies (CFU-E cells; [5]): 0.3 (±0.3) colonies per 1000 plated cells
- GEMM colonies (CFU-E cells; [5]): 0 colonies per 1000 plated cells
- large BFU-E colonies (CFU-E cells; [5]): 0.4 (±2) colonies per 1000 plated cells
- small BFU-E colonies (CFU-E cells; [5]): 15 (±2) colonies per 1000 plated cells
- CFU-E colonies (CFU-E cells; [6]): 565 (±120) colonies per 1000 plated cells
- CFU-G/M/Meg colonies (CFU-E cells; [6]): 0 colonies per 1000 plated cells
- GEMM colonies (CFU-E cells; [6]): 0 colonies per 1000 plated cells
- large BFU-E colonies (CFU-E cells; [6]): 0 colonies per 1000 plated cells
- small BFU-E colonies (CFU-E cells; [6]): 17 (±31) colonies per 1000 plated cells
- CFU-E colonies (CFU-E cells; [7]): 526 colonies per 1000 plated cells
- CFU-G/M/Meg colonies (CFU-E cells; [7]): 0 colonies per 1000 plated cells
- GEMM colonies (CFU-E cells; [7]): 0 colonies per 1000 plated cells
- large BFU-E colonies (CFU-E cells; [7]): 1 colonies per 1000 plated cells
- small BFU-E colonies (CFU-E cells; [7]): 29 colonies per 1000 plated cells
- Cells forming early BFU-E-derived colonies (CFU-E cells; [8]): 0%
- Cells forming late BFU-E-derived colonies (CFU-E cells; [8]): 1.7%
- Cells forming single-CFU-E colonies (CFU-E cells; [8]): 57%
- CFU-E colonies (BFU-E cells [2]; [9]): 96 (±23) colonies per 1000 plated cells
- CFU-G/M/Meg colonies (BFU-E cells [2]; [9]): 19 (±6) colonies per 1000 plated cells
- GEMM colonies (BFU-E cells [2]; [9]): 0.8 (±2) colonies per 1000 plated cells
- large BFU-E colonies (BFU-E cells [2]; [9]): 178 (±28) colonies per 1000 plated cells
- small BFU-E colonies (BFU-E cells [2]; [9]): 336 (±27) colonies per 1000 plated cells
- CFU-E colonies (BFU-E cells [2]; CD71 10% low cells, 100 nM Dex): 66 (±28) colonies per 1000 plated cells
- CFU-G/M/Meg colonies (BFU-E cells [2]; CD71 10% low cells, 100 nM Dex): 20 (±21) colonies per 1000 plated cells
- GEMM colonies (BFU-E cells [2]; CD71 10% low cells, 100 nM Dex): 0 colonies per 1000 plated cells
- large BFU-E colonies (BFU-E cells [2]; CD71 10% low cells, 100 nM Dex): 222 (±84) colonies per 1000 plated cells
- small BFU-E colonies (BFU-E cells [2]; CD71 10% low cells, 100 nM Dex): 289 (±85) colonies per 1000 plated cells
- CFU-E colonies (BFU-E cells [2]; [10]): 33 (±10) colonies per 1000 plated cells
- CFU-G/M/Meg colonies (BFU-E cells [2]; [10]): 7 (±2) colonies per 1000 plated cells
- GEMM colonies (BFU-E cells [2]; [10]): 0 colonies per 1000 plated cells
- large BFU-E colonies (BFU-E cells [2]; [10]): 412 (±23) colonies per 1000 plated cells
- small BFU-E colonies (BFU-E cells [2]; [10]): 251 (±40) colonies per 1000 plated cells
- Cells forming CFU-E colonies (BFU-E cells [2]; [11]): 6.6%
- Cells forming CFU-G/M/Meg colonies (BFU-E cells [2]; [11]): 2.0%
- Cells forming early BFU-Es (BFU-E cells [2]; [11]): 22%
- Cells forming late BFU-E colonies (BFU-E cells [2]; [11]): 29%
